From the supplement of paper PMC10307832

How the values were obtained:
Assay in all cases: relative viability (nuclei count vs DMSO), 5 days (fraction); higher = more cells survive
[1] = compound: CN(C/C=C/C1=CC=C(C=C1)Cl)CC2=CC=CC=C2N(CCO)S(=O)(=O)C3=CC=C(C=C3)OC [KN-93] + CS(=O)(=O)N1CCN(Cc2cc3nc(-c4cccc5[nH]ncc45)nc(N4CCOCC4)c3s2)CC1 [Pictilisib] (partner 1 µM)
How it was run: (§1)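 The day after seeding in 1536-well plates, lung cancer cell lines were treated by pin tool with a single drug, or with a fixed anchor-drug dose together with five library-drug doses (not always all listed) in √10 steps. After 5 days, a combined fix-and-stain solution (final 0.05% Triton X-100, 1% formaldehyde, 1 ug/ml Hoechst) was added. Nuclei counted on 4× images gave relative viability as treated counts over vehicle counts, reported as the median of duplicate plates.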

[2] = compound: CN(C/C=C/C1=CC=C(C=C1)Cl)CC2=CC=CC=C2N(CCO)S(=O)(=O)C3=CC=C(C=C3)OC [KN-93] + N=C(N)NC(=N)NCCc1ccccc1 [Phenformin] (partner 250 µM)
How it was run: as §1

[3] = compound: CN(C/C=C/C1=CC=C(C=C1)Cl)CC2=CC=CC=C2N(CCO)S(=O)(=O)C3=CC=C(C=C3)OC [KN-93] + C[C@@H](Oc1cc(-c2cnn(C3CCNCC3)c2)cnc1N)c1c(Cl)ccc(F)c1Cl [Crizotinib] (partner 1 µM)
How it was run: as §1

[4] = compound: CN(C/C=C/C1=CC=C(C=C1)Cl)CC2=CC=CC=C2N(CCO)S(=O)(=O)C3=CC=C(C=C3)OC [KN-93] + C[C@]1(O)C[C@@H](c2nc(-c3ccc4ccc(-c5ccccc5)nc4c3)c3c(N)nccn32)C1 [Linsitinib] (partner 1 µM)
How it was run: as §1

[5] = compound: CN(C/C=C/C1=CC=C(C=C1)Cl)CC2=CC=CC=C2N(CCO)S(=O)(=O)C3=CC=C(C=C3)OC [KN-93] + CCNC(=O)c1noc(-c2cc(C(C)C)c(O)cc2O)c1-c1ccc(CN2CCOCC2)cc1 [Luminespib] (partner 0.01 µM)
How it was run: as §1

| Cell Line | relative viability ([1]; first compound 0.08 µM) | relative viability ([1]; first compound 0.253 µM) | relative viability ([1]; first compound 2.53 µM) | relative viability ([1]; first compound 8 µM) | relative viability ([2]; first compound 0.08 µM) | relative viability ([2]; first compound 0.253 µM) | relative viability ([2]; first compound 2.53 µM) | relative viability ([2]; first compound 8 µM) | relative viability ([3]; first compound 0.08 µM) | relative viability ([3]; first compound 0.253 µM) | relative viability ([3]; first compound 2.53 µM) | relative viability ([3]; first compound 8 µM) | relative viability ([4]; first compound 0.08 µM) | relative viability ([4]; first compound 0.253 µM) | relative viability ([4]; first compound 2.53 µM) | relative viability ([4]; first compound 8 µM) | relative viability ([5]; first compound 0.08 µM) | relative viability ([5]; first compound 0.253 µM) | relative viability ([5]; first compound 2.53 µM) | relative viability ([5]; first compound 8 µM) |
| --- | --- | --- | --- | --- | --- | --- | --- | --- | --- | --- | --- | --- | --- | --- | --- | --- | --- | --- | --- | --- |
| NCI-H1755 | 0.413 | 0.429 | 0.475 | 0.205 | 0.699 | 0.608 | 0.674 | 0.605 | 0.86 | 1.14 | 0.903 | 0.566 | 1.01 | 1.05 | 1.05 | 0.837 | 0.457 | 0.436 | 0.285 | 0.221 |
| COR-L23 | 0.796 | 0.892 | 0.997 | 0.414 | 0.432 | 0.569 | 0.583 | 0.387 | 0.697 | 0.764 | 0.673 | 0.455 | 0.683 | 1.07 | 0.887 | 0.577 | 0.604 | 1 | 0.978 | 0.424 |
| LXF-289 | 0.724 | 0.891 | 0.825 | 0.559 | 0.515 | 0.568 | 0.597 | 0.504 | 0.782 | 0.913 | 0.825 | 0.532 | 0.963 | 1 | 0.964 | 0.652 | 0.536 | 0.833 | 0.787 | 0.588 |
| RERF-LC-KJ | 0.582 | 0.486 | 0.598 | 0.332 | 0.365 | 0.409 | 0.462 | 0.307 | 0.803 | 0.848 | 0.917 | 0.639 | 0.82 | 0.82 | 0.967 | 0.611 | 1.21 | 1.51 | 1.16 | 0.559 |
| NCI-H1666 | 0.56 | 0.388 | 0.489 | 0.527 | 0.611 | 0.772 | 0.656 | 0.576 | 0.939 | 0.837 | 0.998 | 0.626 | 0.837 | 0.672 | 1.11 | 0.588 | 0.946 | 1.13 | 1.1 | 0.941 |
| NCI-H520 | – | 0.32 | 0.297 | 0.26 | 0.732 | 0.769 | 0.842 | 0.451 | – | 1.08 | 0.759 | 0.586 | – | 1.21 | 1.12 | 0.682 | 0.246 | 0.212 | 0.281 | 0.224 |
| NCI-H2342 | – | – | – | – | 0.536 | 0.62 | 0.671 | 0.487 | – | – | – | – | – | – | – | – | 0.623 | 0.686 | 0.913 | 0.634 |
| SW 900 | – | – | – | – | 0.547 | 0.474 | 0.656 | 0.554 | – | – | – | – | – | – | – | – | 0.166 | 0.178 | 0.145 | 0.182 |
| NCI-H522 | – | – | – | – | 0.666 | 0.704 | 0.741 | 0.636 | – | – | – | – | – | – | – | – | 1.28 | 1.4 | 1.39 | 1.11 |
| NCI-H1650 | 0.527 | 0.537 | 0.582 | 0.239 | 0.468 | 0.417 | 0.571 | 0.25 | 0.874 | 1.01 | 1.15 | 0.547 | – | – | – | – | 0.182 | 0.187 | 0.208 | 0.19 |
